Marks after values point to notes of the source that are not given here.
Assays:
[1] = biological target: T1, vanilloid receptor 1 (VR1/TRPV1) (Homo sapiens, UniProt Q8NER1); assay: FLIPR capsaicin assay; type: cell-based, human or rat; details: functional Ki, capsaicin 100 nM, VR1-transfected CHO K1 cells, modified Cheng-Prusoff; read-out: f(Ki) (VR1)
T1 construct: expressed in transfected cells; host or cells: CHO K1 cells (ECACC), stably transfected
Description: (§1) The agonist or antagonist effect of substances can be determined at the vanilloid receptor 1 (VR1/TRPV1) of the human and rat species with the assay described below. Accordingly, the Ca^2+ influx through the channel is quantified by means of a Ca^2+-sensitive dye (Fluo-4, Molecular Probes Europe BV, Leiden, The Netherlands) in the fluorescent imaging plate reader (FLIPR, Molecular Devices, Sunnyvale, USA).
(§2) Chinese hamster ovary cells (CHO K1 cells, ECACC, England) are stably transfected with human or rat VR1 cDNA. For functional studies these cells are plated onto poly-D-lysine-coated black 96-hole plates with a clear base (BD Biosciences, Heidelberg, Germany) in a density of 25 000 cells/cavity. The cells are incubated overnight at 37° C. with 5% CO2 in culture medium (nutrient mixture Ham's F12, Gibco Invitrogen GmbH, Karlsruhe, Germany) with 10% vol. FBS (foetal bovine serum, Gibco Invitrogen GmbH, Karlsruhe, Germany) and 18 μg/ml of L-proline (Gibco Invitrogen GmbH, Karlsruhe, Germany). On the following day, the cells are laden with 2 μM Fluo-4 and 0.01% vol. Pluronic F127 (Molecular Probes Europe BV, Leiden, The Netherlands) in HBSS buffer (Hank's buffered saline solution, Gibco Invitrogen GmbH, Karlsruhe, Germany) for 30 min at 37° C. The plates are then washed 3 times in HBSS buffer and after further incubation for 15 minutes at room temperature are placed in the FLIPR for the Ca^2+ measurement. In this case, the Ca^2+-dependent fluorescence is measured before and after the addition of substances (λex=488 nm, λem=540 nm). Quantification occurs as a result of the measurement of the highest fluorescence intensity (FC, fluorescence counts) over time.
The FLIPR protocol consists of 2 substance additions. Test substances (10 μM) are firstly pipetted onto the cells and the Ca^2+ influx is compared to the control (capsaicin 10 μM). This gives the specification in % activation in relation to the Ca^2+ signal after adding 10 μM of capsaicin. After 5 minutes incubation 100 nM of capsaicin are applied and the influx of Ca^2+ likewise determined. Desensitising agonists and antagonists lead to a suppression of the Ca^2+ influx. Inhibition values [%] are calculated in comparison to the maximum achievable inhibition with a saturating concentration of […] or another reference antagonist. The test substance is added in different concentrations to determine the IC50 and functional Ki value ((f)Ki). Triple determinations (n=3) are conducted and these are repeated in at least one further independent experiment (N>=2). A capsaicin dose action curve is generated to incorporate the thus determined EC50 values into the associated (f)Ki determination. EC50/IC50 values are calculated using ‘Prism4’ software from GraphPad Software™ or with XLfit4™ (ID Business Solutions Ltd.). (f)Ki values are calculated in accordance with the modified Cheng-Prusoff equation (Cheng, Prusoff; Biochem. Pharmacol. 22, 3099-3108, 1973). Testing for non-specific inhibition of the fluorescence as a result of the substances is conducted by activating wild type CHO K1 cells incubated with the same test substances with ATP (10 μM final concentration).

[2] = tested on: rats; assay: Tail-flick (hot beam) test in rats; type: in vivo, rat; details: dosage 30 mg/kg i.v.
Method: Sprague Dawley rats (140-160 g body weight) were used for the following animal models. Sprague Dawley rats (140-160 g body weight) from a commercial breeder (Janvier, Genest St. Isle, France) were used. The animals were kept under standard conditions: light-dark rhythm (06:00 to 18:00 h light, 18:00 to 06:00 h dark), room temperature 19-23° C., relative air humidity 45-65%, air exchange 19 times per hour, air movement <0.2 m/s, free choice of tap water and standard feed, Macrolon Type 4 cages with 5 animals per cage. The solutions of the test substances and/or vehicles (10% […], 5% Cremophor EL, 5% glucose) were administered intravenously.
The analgesic efficacy of the test compounds was examined in the hot beam (tail flick) test in rats using the method of D'Amour and Smith (J. Pharm. Exp. Ther. 1941, 72, 74-79). The time from switching on the lamp (8V/50 W) to the sudden flicking away of the tail from the hot beam (pain latency) was measured by means of a semiautomatic apparatus (tail-flick Analgesiemeter Type 50/08/1.bc, Labtec, Dr. Hess, Germany). The lamp intensity was adjusted before conducting the experiments so that the time from switching on the lamp to the sudden flicking away of the tail (pain latency) amounted to 3-5 seconds in untreated animals. The lamp was automatically switched off after 12 seconds to avoid tissue damage to the rat's tail. The pain latency was measured 10, 20, 40 and 60 min after intravenous administration. The analgesic effect was determined as increase in pain latency (% MPE) according to the following formula: […]
In this case, T0 is the latency time before and T1 the latency time after substance application, T2 is the maximum exposure time (12 sec). Results of the analgesia study in the tail-flick test in rats:
The following experiments of Example 2 relate to binding studies and the analgesic efficacy of the compounds with dual mode of action according to the invention. The experiments comprise the determination of the (f)Ki value at the TPRV1 receptor, the Ki value at the μ-opioid receptor and the hypothermia assay in mice. The tail-flick test for the compounds [1], [4], [7] and [10] according to the invention was conducted in a similar manner to the above-described method (cf. Example 1, experiment 1).

[3] = biological target: T2, human recombinant μ-opioid receptor (Homo sapiens, UniProt P35372); assay: Ki value at the μ-opioid receptor (Experiment 4); type: binding
T2 construct: expressed in transfected cells; host or cells: CHO-K1 cells (membrane preparation)
T2 sequence (P35372 whole entry): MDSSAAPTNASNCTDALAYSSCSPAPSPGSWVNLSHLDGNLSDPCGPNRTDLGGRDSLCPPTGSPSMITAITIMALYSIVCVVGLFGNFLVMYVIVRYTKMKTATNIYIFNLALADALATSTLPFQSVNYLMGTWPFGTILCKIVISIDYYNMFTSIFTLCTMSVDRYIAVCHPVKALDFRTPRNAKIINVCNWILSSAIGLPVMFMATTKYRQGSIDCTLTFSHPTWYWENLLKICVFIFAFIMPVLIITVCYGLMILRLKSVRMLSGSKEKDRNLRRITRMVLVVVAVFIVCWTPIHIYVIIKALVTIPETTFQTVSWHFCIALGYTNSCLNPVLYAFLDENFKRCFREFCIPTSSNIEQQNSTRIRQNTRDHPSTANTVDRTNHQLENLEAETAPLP

[4] = tested on: male NMRI mice; assay: Hypothermia assay in mice (capsaicin-induced hypothermia); type: in vivo, mouse; details: dosage 3 mg/kg p.o., capsaicin 3 mg/kg i.p.
Method: The hypothermia assay was conducted on male NMRI mice (weight 25-35 gram). The animals were kept in standardised conditions: light/dark rhythm (6:00 to 18:00 h light phase, 18:00 to 6:00 h dark phase), room temperature 19-22° C., relative air humidity 35-70%, air exchange 15 times per hour, air movement <0.2 m/sec. The animals received standard feed (ssniff R/M-Haltung, ssniff Spezialdiäten GmbH, Soest, Germany) and tap water. Water and feed were withdrawn during the test. All the animals were used only once in the test. […] The acute application of capsaicin (VR-1 agonist) causes a drop in core body temperature in rats and mice via a stimulation of heat sensors. Only specific active VR-1 receptor antagonists can antagonise capsaicin-induced hypothermia. In contrast, hypothermia induced by morphine is not antagonised by VR-1 antagonists. This model is therefore suitable for identifying substances with VR-1 antagonist properties via the effect on the body temperature.
A digital thermometer (Thermalert TH-5, physitemp, Clifton N.J., USA) is used for measuring the core body temperature. The measurement sensor is inserted into the rectum of the animals in this case. As an individual base value the body temperature is measured twice in each animal at an interval of approximately half an hour. A group of animals (n=6 to 10) then received an intraperitoneal (i.p.) application of capsaicin of 3 mg/kg and vehicle (control group). Another group of animals received the substance to be tested (i.v. or p.o.) and additionally capsaicin (3 mg/kg) i.p. The test substance was applied i.v. 10 min or p.o. 15 minutes before the application of capsaicin. Then, the body temperature was measured 7.5, 15 and 30 min after capsaicin application (i.v.+i.p.) or 15, 30, 60, 90 and 120 min after capsaicin application (p.o.+i.p.). In addition, one animal group was treated only with test substance and one group was treated only with vehicle. The antagonist effect is calculated as a percentage reduction in the capsaicin-induced hypothermia.

[5] = biological target: T3, human VR1 (Homo sapiens, UniProt Q8NER1); assay: FLIPR pH assay; type: cell-based
T3 construct: expressed in transfected cells; host or cells: CHO K1 cells (ECACC), stably transfected
T3 sequence (Q8NER1 whole entry): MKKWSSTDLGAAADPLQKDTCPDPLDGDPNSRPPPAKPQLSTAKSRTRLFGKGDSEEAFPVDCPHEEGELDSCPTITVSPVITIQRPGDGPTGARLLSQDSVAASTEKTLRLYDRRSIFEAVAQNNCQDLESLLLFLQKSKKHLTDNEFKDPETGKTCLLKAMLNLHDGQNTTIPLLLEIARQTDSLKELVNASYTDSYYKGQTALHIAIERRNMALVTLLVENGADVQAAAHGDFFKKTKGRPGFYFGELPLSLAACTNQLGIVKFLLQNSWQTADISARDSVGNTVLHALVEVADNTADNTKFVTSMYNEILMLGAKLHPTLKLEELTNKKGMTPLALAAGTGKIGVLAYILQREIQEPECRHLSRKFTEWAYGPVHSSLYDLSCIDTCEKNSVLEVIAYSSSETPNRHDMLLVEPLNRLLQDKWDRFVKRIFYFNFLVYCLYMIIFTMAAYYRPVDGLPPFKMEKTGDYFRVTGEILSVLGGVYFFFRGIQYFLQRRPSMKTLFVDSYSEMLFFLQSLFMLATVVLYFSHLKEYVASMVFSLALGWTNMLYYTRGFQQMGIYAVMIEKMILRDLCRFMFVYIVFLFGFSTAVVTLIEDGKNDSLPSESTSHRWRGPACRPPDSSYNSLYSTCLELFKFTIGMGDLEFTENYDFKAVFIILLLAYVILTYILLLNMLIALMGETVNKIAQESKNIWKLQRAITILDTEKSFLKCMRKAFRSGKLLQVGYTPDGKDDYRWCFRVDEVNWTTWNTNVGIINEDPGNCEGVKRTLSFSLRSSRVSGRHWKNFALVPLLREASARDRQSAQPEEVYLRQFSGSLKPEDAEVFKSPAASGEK
Description: as §1, §2
In the pH assay, HBSS that now contains 60 mM MES instead of capsaicin is applied to human VR1-transfected CHO K1 cells (adjusted pH value of the addition solution is 4.95). Percentage inhibition and IC50 values are raised and evaluated as already described for the capsaicin test.

T1 sequence (Q8NER1 whole entry): as above

Structure (SMILES)	Ki [1]	Tail-Flick [% MPE] [2]	Ki [3]	Hypothermia Assay [% Inhibition] [4]	IC50 [5]
CC(C(=O)NCc1ccc(C(F)(F)F)cc1N1CCC(c2cccs2)(N(C)C)CC1)c1ccc(NS(C)(=O)=O)c(F)c1 (centres unmarked) [[4], N-(2-(4-(dimethylamino)-4-(thiophen-2-yl)piperidin-1-yl)-4-(trifluoromethyl)benzyl)-2-(3-fluoro-4-(methylsulfonamido)phenyl)propanamide]	5 nM	n.e.^3), 37%^4) % MPE	61 nM	4%^1)	776 nM
CC(C(=O)NCc1ccc(C(F)(F)F)cc1N1CCC(Cc2ccccc2)(N(C)C)CC1)c1ccc(NS(C)(=O)=O)c(F)c1 (centres unmarked) [[7], N-(2-(4-benzyl-4-(dimethylamino)piperidin-1-yl)-4-(trifluoromethyl)benzyl)-2-(3-fluoro-4-(methylsulfonamido)phenyl)propanamide]	2.8 nM	n.e.^3), 100%^4) % MPE	24 nM	59%^1)	434 nM
CC(C(=O)NCc1ccc(C(F)(F)F)cc1N1CCC(Cc2cccc(F)c2)(N(C)C)CC1)c1ccc(NS(C)(=O)=O)c(F)c1 (centres unmarked) [[10], N-(2-(4-(dimethylamino)-4-(3-fluorobenzyl)piperidin-1-yl)-4-(trifluoromethyl)benzyl)-2-(3-fluoro-4-(methylsulfonamido)phenyl)propanamide]	1.4 nM	–	79 nM	29%^1)	137 nM
